Test results as given in patent publication US20200354426A1 (MEDIMMUNE LIMITED, priority 2016, published 2020).
Values joined by “and” are separate entries in the source; they are usually repeats but may differ in a detail not shown here. Equal entries are not always repeated. Where two headings read alike, the source gives them in different places. Numbered stars: 1 amine (or outer) side, 2 acyl side, 3 side chain; on linkers, the order of the positions; unused ones are H or OH. Side chains are listed from the residue outwards. Peptide text beside a SMILES is read from it. * marks the point of attachment. γGlu = O=C(O)[C@H](CCC(=O)[*:2])N[*:1]; Palmitoyl = CCCCCCCCCCCCCCCC(=O)*

What was measured:
Test in all cases: cAMP activity assay in assay medium (assay 1)
Format in all cases: cell-based
Details in all cases: assay medium
Human GIPr = target: T1, Human GIPr (Homo sapiens, UniProt P48546)
T1 construct: expressed in transfected cells
T1 sequence (P48546 22-466): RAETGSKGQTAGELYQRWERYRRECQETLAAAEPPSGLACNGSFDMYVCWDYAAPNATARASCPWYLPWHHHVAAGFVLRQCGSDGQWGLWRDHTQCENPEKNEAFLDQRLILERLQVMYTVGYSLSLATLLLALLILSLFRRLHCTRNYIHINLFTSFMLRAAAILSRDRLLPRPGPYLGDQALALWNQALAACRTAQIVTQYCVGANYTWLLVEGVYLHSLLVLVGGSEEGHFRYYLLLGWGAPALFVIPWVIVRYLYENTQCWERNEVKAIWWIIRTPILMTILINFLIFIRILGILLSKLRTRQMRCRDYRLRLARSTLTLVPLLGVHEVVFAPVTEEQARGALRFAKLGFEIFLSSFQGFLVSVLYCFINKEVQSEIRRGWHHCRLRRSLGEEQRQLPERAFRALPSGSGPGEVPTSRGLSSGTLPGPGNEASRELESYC
Source text: (§1) Biological Activity of Peptides in Cell-Based cAMP Activity Assay (Assay 1):
(§2) All sample dilutions were made in duplicate.

Human GlucR = target: T2, Human GlucR (Homo sapiens, UniProt P47871)
T2 construct: expressed in transfected cells
T2 sequence (P47871 26-477): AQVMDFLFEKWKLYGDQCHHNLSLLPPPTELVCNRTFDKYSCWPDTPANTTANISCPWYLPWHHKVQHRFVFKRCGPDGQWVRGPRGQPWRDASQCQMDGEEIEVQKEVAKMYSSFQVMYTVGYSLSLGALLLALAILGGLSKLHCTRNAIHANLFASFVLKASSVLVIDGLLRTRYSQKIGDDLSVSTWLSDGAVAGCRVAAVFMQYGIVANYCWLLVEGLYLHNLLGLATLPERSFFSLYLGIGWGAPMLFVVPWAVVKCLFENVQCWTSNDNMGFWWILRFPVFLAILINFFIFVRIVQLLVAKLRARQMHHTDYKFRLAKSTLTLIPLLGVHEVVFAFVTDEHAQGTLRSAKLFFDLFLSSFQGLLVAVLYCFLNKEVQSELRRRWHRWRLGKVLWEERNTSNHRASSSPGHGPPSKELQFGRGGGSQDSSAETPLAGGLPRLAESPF
Source text: as §1, §2

Human GLP1R = Human GLP1R (Homo sapiens, UniProt P43220); design: expressed in transfected cells
Human GLP1R, sequence (P43220 24-463): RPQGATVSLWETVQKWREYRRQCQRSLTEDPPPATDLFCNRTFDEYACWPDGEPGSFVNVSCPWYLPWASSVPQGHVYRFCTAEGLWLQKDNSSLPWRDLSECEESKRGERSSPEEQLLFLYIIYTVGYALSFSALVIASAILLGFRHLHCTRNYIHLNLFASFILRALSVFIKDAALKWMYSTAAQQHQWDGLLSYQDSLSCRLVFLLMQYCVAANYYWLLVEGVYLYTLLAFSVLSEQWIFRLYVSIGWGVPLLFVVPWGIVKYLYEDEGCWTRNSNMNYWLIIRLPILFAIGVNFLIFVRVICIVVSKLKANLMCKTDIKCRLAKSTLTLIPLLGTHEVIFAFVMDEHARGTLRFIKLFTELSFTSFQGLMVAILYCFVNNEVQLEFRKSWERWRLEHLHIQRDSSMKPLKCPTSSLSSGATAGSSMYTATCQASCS
Source text: as §1, §2

[1] = Table 3, C-terminal acid peptides, read-out: Human GIPr EC50
[2] = Table 3, C-terminal acid peptides, read-out: Human GlucR EC50
[3] = Table 3, C-terminal acid peptides, read-out: Human GLP1R EC50

Row | SMILES | EC50 (Human GIPr; [1]) | EC50 (Human GlucR; [2]) | EC50 (Human GLP1R; [3]) | EC50 (Human GIPr; Table 4, read-out: hGIPR EC50) | EC50 (Human GlucR; Table 4, read-out: hGlucR EC50) | EC50 (Human GLP1R; Table 4, read-out: hGLP1R EC50)
1 | CCCCCCCCCCCCCCCC(=O)N[C@@H](CCC(=O)NCCCC[C@H](NC(=O)[C@H](CC(=O)O)NC(=O)[C@H](CO)NC(=O)[C@@H](NC(=O)[C@H](Cc1ccccc1)NC(=O)[C@@H](NC(=O)CNC(=O)[C@H](CCC(N)=O)NC(=O)[C@H](CO)NC(=O)[C@@H](N)Cc1c[nH]cn1)[C@@H](C)O)[C@@H](C)O)C(=O)N[C@@H](CO)C(=O)N[C@@H](CCCCN)C(=O)N[C@@H](Cc1ccc(O)cc1)C(=O)N[C@@H](CC(C)C)C(=O)N[C@@H](CCC(=O)O)C(=O)NCC(=O)N[C@@H](CCC(N)=O)C(=O)N[C@@H](C)C(=O)N[C@@H](C)C(=O)N[C@@H](CCCCN)C(=O)N[C@@H](CCC(=O)O)C(=O)N[C@@H](Cc1ccccc1)C(=O)N[C@H](C(=O)N[C@@H](C)C(=O)N[C@@H](Cc1c[nH]c2ccccc12)C(=O)N[C@@H](CC(C)C)C(=O)N[C@@H](CCC(=O)O)C(=O)N[C@@H](CCCCN)C(=O)NCC(=O)N[C@@H](CCCNC(=N)N)C(=O)O)[C@@H](C)CC)C(=O)O [Peptide G934] | 3600 pM | 6.3 pM | 18 pM | – | – | –
2 | CCCCCCCCCCCCCCCC(=O)N[C@@H](CCC(=O)NCCCC[C@H](NC(=O)[C@H](CC(=O)O)NC(=O)[C@H](CO)NC(=O)[C@@H](NC(=O)[C@H](Cc1ccccc1)NC(=O)[C@@H](NC(=O)CNC(=O)[C@H](CCC(N)=O)NC(=O)[C@H](CO)NC(=O)[C@@H](N)Cc1c[nH]cn1)[C@@H](C)O)[C@@H](C)O)C(=O)N[C@@H](CO)C(=O)N[C@@H](CO)C(=O)N[C@@H](Cc1ccc(O)cc1)C(=O)N[C@@H](CC(C)C)C(=O)N[C@@H](CC(=O)O)C(=O)N[C@@H](CO)C(=O)N[C@@H](CCCNC(=N)N)C(=O)N[C@@H](CO)C(=O)N[C@@H](C)C(=O)N[C@@H](CCCNC(=N)N)C(=O)N[C@@H](CC(=O)O)C(=O)N[C@@H](Cc1ccccc1)C(=O)N[C@H](C(=O)N[C@@H](C)C(=O)N[C@@H](Cc1c[nH]c2ccccc12)C(=O)N[C@@H](CC(C)C)C(=O)N[C@@H](CCC(=O)O)C(=O)N[C@@H](C)C(=O)NCC(=O)NCC(=O)O)C(C)C)C(=O)O [Peptide G973] | 47000 pM | 8.9 pM | 12 pM | – | – | –
3 | CC(C)C[C@H](NC(=O)[C@H](Cc1ccc(O)cc1)NC(=O)[C@H](CCCCN)NC(=O)[C@H](CO)NC(=O)[C@H](Cc1ccc(O)cc1)NC(=O)[C@H](CC(=O)O)NC(=O)[C@H](CO)NC(=O)[C@@H](NC(=O)[C@H](Cc1ccccc1)NC(=O)[C@@H](NC(=O)CNC(=O)[C@H](CCC(N)=O)NC(=O)[C@H](CO)NC(=O)[C@@H](N)Cc1c[nH]cn1)[C@@H](C)O)[C@@H](C)O)C(=O)N[C@@H](CC(=O)O)C(=O)N[C@@H](CO)C(=O)N[C@@H](CCCNC(=N)N)C(=O)N[C@@H](CCCNC(=N)N)C(=O)N[C@@H](C)C(=O)N[C@@H](CCC(N)=O)C(=O)N[C@@H](CC(=O)O)C(=O)N[C@@H](Cc1ccccc1)C(=O)N[C@H](C(=O)N[C@@H](CCC(N)=O)C(=O)N[C@@H](Cc1c[nH]c2ccccc12)C(=O)N[C@@H](CC(C)C)C(=O)N[C@H](C(=O)N[C@@H](CCCNC(=N)N)C(=O)NCC(=O)NCC(=O)NCC(=O)NCC(=O)NCC(=O)NCC(N)=O)C(C)C)C(C)C [g315] | – | – | – | 19700 pM | 5.04 pM | 27.3 pM

The remaining lines, values ahead:

Row | EC50 (Human GIPr; [1]) | EC50 (Human GlucR; [2]) | EC50 (Human GLP1R; [3]) | EC50 (Human GIPr; Table 4, read-out: hGIPR EC50) | EC50 (Human GlucR; Table 4, read-out: hGlucR EC50) | EC50 (Human GLP1R; Table 4, read-out: hGLP1R EC50) | SMILES
4 | – | – | – | 113000 pM and 112000 pM | 96.2 pM and 69.8 pM | – | CCCCCCCCCCCCCCCC(=O)N[C@@H](CCC(=O)NCCCC[C@H](NC(=O)[C@H](CO)NC(=O)[C@H](CC(=O)O)NC(=O)[C@H](CC(C)C)NC(=O)[C@H](Cc1ccc(O)cc1)NC(=O)[C@H](CCCCN)NC(=O)[C@H](CO)NC(=O)[C@H](Cc1ccc(O)cc1)NC(=O)[C@H](CC(=O)O)NC(=O)[C@H](CO)NC(=O)[C@@H](NC(=O)[C@H](Cc1ccccc1)NC(=O)[C@@H](NC(=O)CNC(=O)[C@H](CCC(N)=O)NC(=O)[C@H](CO)NC(=O)[C@@H](N)Cc1c[nH]cn1)[C@@H](C)O)[C@@H](C)O)C(=O)N[C@@H](CCCNC(=N)N)C(=O)N[C@@H](C)C(=O)N[C@@H](CCC(=O)O)C(=O)N[C@@H](CC(=O)O)C(=O)N[C@@H](Cc1ccccc1)C(=O)N[C@H](C(=O)N[C@@H](CCC(N)=O)C(=O)N[C@@H](Cc1c[nH]c2ccccc12)C(=O)N[C@@H](CC(C)C)C(=O)N[C@H](C(=O)N[C@@H](C)C(=O)NCC(=O)NCC(N)=O)C(C)C)C(C)C)C(=O)O [g599]
5 | – | – | – | 1480 pM | – | 5.77 pM | CCCCCCCCCCCCCCCC(=O)N[C@@H](CCC(=O)NCCCC[C@H](NC(=O)[C@H](CC(=O)O)NC(=O)[C@H](CO)NC(=O)[C@@H](NC(=O)[C@H](Cc1ccccc1)NC(=O)[C@@H](NC(=O)CNC(=O)[C@H](CCC(N)=O)NC(=O)[C@H](CO)NC(=O)[C@@H](N)Cc1c[nH]cn1)[C@@H](C)O)[C@@H](C)O)C(=O)N[C@@H](CO)C(=O)N[C@@H](CCCCN)C(=O)N[C@@H](Cc1ccc(O)cc1)C(=O)N[C@@H](CC(C)C)C(=O)N[C@@H](CC(=O)O)C(=O)N[C@@H](CO)C(=O)N[C@@H](CCCNC(=N)N)C(=O)N[C@@H](CCCNC(=N)N)C(=O)N[C@@H](C)C(=O)N[C@@H](CCC(N)=O)C(=O)N[C@@H](CC(=O)O)C(=O)N[C@@H](Cc1ccccc1)C(=O)N[C@H](C(=O)N[C@@H](CCC(N)=O)C(=O)N[C@@H](Cc1c[nH]c2ccccc12)C(=O)N[C@@H](CC(C)C)C(=O)N[C@@H](CCC(=O)O)C(=O)N[C@@H](C)C(=O)NCC(=O)NCC(N)=O)C(C)C)C(=O)O [g717] (H-HSQGTFTSDK([γGlu-Palmitoyl])SKYLDSRRAQDFVQWLEAGG-NH2; N-terminus assumed)
6 | – | – | – | 64000 pM | – | 12 pM | CCCCCCCCCCCCCCCC(=O)N[C@@H](CCC(=O)NCCCC[C@H](NC(=O)[C@H](Cc1ccc(O)cc1)NC(=O)[C@H](CCCCN)NC(=O)[C@H](CO)NC(=O)[C@H](Cc1ccc(O)cc1)NC(=O)[C@H](CC(=O)O)NC(=O)[C@H](CO)NC(=O)[C@@H](NC(=O)[C@H](Cc1ccccc1)NC(=O)[C@@H](NC(=O)CNC(=O)[C@H](CCC(N)=O)NC(=O)[C@H](CO)NC(=O)[C@@H](N)Cc1c[nH]cn1)[C@@H](C)O)[C@@H](C)O)C(=O)N[C@@H](CC(=O)O)C(=O)N[C@@H](CO)C(=O)N[C@@H](CCCNC(=N)N)C(=O)N[C@@H](CCCNC(=N)N)C(=O)N[C@@H](C)C(=O)N[C@@H](CCCNC(=N)N)C(=O)N[C@@H](CC(=O)O)C(=O)N[C@@H](Cc1ccccc1)C(=O)N[C@H](C(=O)N[C@@H](C)C(=O)N[C@@H](Cc1c[nH]c2ccccc12)C(=O)N[C@@H](CC(C)C)C(=O)N[C@@H](CCC(=O)O)C(=O)N[C@@H](C)C(=O)NCC(=O)NCC(N)=O)C(C)C)C(=O)O [g780] (H-HSQGTFTSDYSKYK([γGlu-Palmitoyl])DSRRARDFVAWLEAGG-NH2; N-terminus assumed)
7 | – | – | – | 1510 pM | – | 9.07 pM | CCCCCCCCCCCCCCCC(=O)N[C@@H](CCC(=O)NCCCC[C@H](NC(=O)[C@H](CC(=O)O)NC(=O)[C@H](CO)NC(=O)[C@@H](NC(=O)[C@H](Cc1ccccc1)NC(=O)[C@@H](NC(=O)CNC(=O)[C@H](CCC(N)=O)NC(=O)[C@H](CO)NC(=O)[C@@H](N)Cc1c[nH]cn1)[C@@H](C)O)[C@@H](C)O)C(=O)N[C@@H](CO)C(=O)N[C@@H](CCCCN)C(=O)N[C@@H](Cc1ccc(O)cc1)C(=O)N[C@@H](CC(C)C)C(=O)N[C@@H](CC(=O)O)C(=O)N[C@@H](CO)C(=O)N[C@@H](CCC(=O)O)C(=O)N[C@@H](CCCNC(=N)N)C(=O)N[C@@H](C)C(=O)N[C@@H](CCCNC(=N)N)C(=O)N[C@@H](CC(=O)O)C(=O)N[C@@H](Cc1ccccc1)C(=O)N[C@H](C(=O)N[C@@H](C)C(=O)N[C@@H](Cc1c[nH]c2ccccc12)C(=O)N[C@@H](CC(C)C)C(=O)N[C@@H](CCC(=O)O)C(=O)N[C@@H](C)C(=O)NCC(=O)NCC(N)=O)C(C)C)C(=O)O [g798] (H-HSQGTFTSDK([γGlu-Palmitoyl])SKYLDSERARDFVAWLEAGG-NH2; N-terminus assumed)
8 | – | – | – | 2770 pM | – | 9.42 pM | CCCCCCCCCCCCCCCC(=O)N[C@@H](CCC(=O)NCCCC[C@H](NC(=O)[C@H](CC(=O)O)NC(=O)[C@H](CO)NC(=O)[C@@H](NC(=O)[C@H](Cc1ccccc1)NC(=O)[C@@H](NC(=O)CNC(=O)[C@H](CCC(N)=O)NC(=O)[C@H](CO)NC(=O)[C@@H](N)Cc1c[nH]cn1)[C@@H](C)O)[C@@H](C)O)C(=O)N[C@@H](CO)C(=O)N[C@@H](CCCNC(=N)N)C(=O)N[C@@H](Cc1ccc(O)cc1)C(=O)N[C@@H](CC(C)C)C(=O)N[C@@H](CC(=O)O)C(=O)N[C@@H](CO)C(=O)N[C@@H](CCC(=O)O)C(=O)N[C@@H](CCCNC(=N)N)C(=O)N[C@@H](C)C(=O)N[C@@H](CCCNC(=N)N)C(=O)N[C@@H](CC(=O)O)C(=O)N[C@@H](Cc1ccccc1)C(=O)N[C@H](C(=O)N[C@@H](C)C(=O)N[C@@H](Cc1c[nH]c2ccccc12)C(=O)N[C@@H](CC(C)C)C(=O)N[C@@H](CCC(=O)O)C(=O)N[C@@H](C)C(=O)NCC(=O)NCC(N)=O)C(C)C)C(=O)O [g848] (H-HSQGTFTSDK([γGlu-Palmitoyl])SRYLDSERARDFVAWLEAGG-NH2; N-terminus assumed)
